{
  "source": "paper PMC9841533",
  "about": "“Microtubule-Stabilizing 1,2,4-Triazolo[1,5-a]pyrimidines as Candidate Therapeutics for Neurodegenerative Disease: Matched Molecular Pair Analyses and Computational Studies Reveal New Structure–Activity Insights” (Journal of Medicinal Chemistry, 2022)",
  "key": {"[1]": {"tested_on": "total tubulin levels in HeLa cells", "set-up": "method as in earlier work", "conditions": "16 h incubation, ref 13 (Yang et al.); cited from earlier work"}, "[2]": {"tested_on": "acetylated α-tubulin (AcTub) levels in QBI293 cells", "set-up": "method as in PMID 26980057, PMID 33411523", "conditions": "activity reported in previous studies; cited from earlier work"}, "[3]": {"tested_on": "total α-tubulin (α-Tub) levels in QBI293 cells", "assay": "QBI293 cell assay: total α-tubulin ELISA", "assay_type": "cell-based", "in_short": "(§1)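 AcTub and α-Tub were quantified by ELISA in whole-cell extracts normalized by BCA protein and expressed relative to vehicle. AcTub changes were also scaled to a 100 nM reference stabilizer control.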"}, "[4]": {"tested_on": "de-tyrosinated α-tubulin (GluTub) in brain of WT mice", "assay": "Brain PD: Glu-tubulin in brain tissue after compound treatment", "assay_type": "in vivo, mouse", "conditions": "WT CD-1 mice, 1 mg/kg i.p. once daily for two consecutive days", "method": "Finally, to evaluate target engagement in the CNS, PD studies were conducted to determine compound-dependent elevations in the stable MT marker, de-tyrosinated α-tubulin (GluTub), in brain homogenates from compound-treated WT mice.\nAll animal protocols were approved by the University of Pennsylvania Institutional Animal Care and Use Committee (IACUC). […] Compounds were diluted from 20 or 40 mM DMSO stock solutions into 30% Kolliphor EL (Sigma-Aldrich) phosphate-buffered saline, pH 7.4. After 4 h following the second injection, mice were euthanized and cortices and hippocampi were isolated from each brain and placed in 0.2 mL of ice-cold radioimmunoprecipitation assay (RIPA) buffer (50 mM Tris, 150 mM NaCl, 5 mM EDTA, 0.5% sodium deoxycholate, 1% NP-40, 0.1% sodium dodecyl sulfate (SDS), pH 8.0) containing protease inhibitor (PI) cocktail (Sigma-Aldrich), 1 mM phenylmethylsulfonyl fluoride (PMSF) (Sigma-Aldrich), and 3 μM trichostatin A (TSA) (Sigma-Aldrich). The brain samples were homogenized with a handheld battery-operated mixer and subsequently sonicated. After centrifugation at 100,000g for 30 min at 4 °C, supernatant samples were transferred to a new tube and the pellets were resuspended in 0.15 mL of RIPA buffer and again homogenized, sonicated, and centrifuged. The supernatant from the second centrifugation was pooled with that from the first. The combined supernatant samples were assessed for protein concentration using a BCA assay (Thermo Fisher Scientific), and equal protein amounts from each brain sample underwent separation by 10% sodium dodecyl sulfate polyacrylamide gel electrophoresis (SDS-PAGE) followed by transfer onto nitrocellulose membranes essentially as previously described.[11] […] Incubation with infrared dye-conjugated secondary antibodies and subsequent imaging and quantification of the blots on the Odyssey imaging system were as described.[11]"}, "[5]": {"assay": "Plasma pharmacokinetics in CD-1 mice", "assay_type": "in vivo, mouse", "conditions": "male, mouse", "method": "Studies to determine the pharmacokinetic properties of compounds 53 and 60 were conducted at Touchstone Biosciences (Plymouth Meeting, PA). For the determination of plasma pharmacokinetics, three male CD-1 mice (2–3 months of age) were injected i.v. (tail vein) with test compound at a dose of 5 mg/kg in a solution of 10% DMSO, 40% polyethylene glycol, and 50% water, and another three male CD-1 mice received oral gavage dosing of 60 formulated as above at a dose of 20 mg/kg. Blood samples were collected from the saphenous or submandibular veins at multiple time points after dosing and collected in Greiner MiniCollect K2EDTA tubes. Compound levels in plasma were determined by LC-MS/MS, using protocols similar to those previously described.[16],[22]"}, "[6]": {"assay": "Brain-to-plasma ratio in mice", "assay_type": "in vivo", "conditions": "mouse, ip, 1 h post-administration, i.p. 1.5 mg/kg, read-out: brain-to-plasma ratio (B/P)"}, "[7]": {"tested_on": "acetylated α-tubulin (AcTub) levels in QBI293 cells", "assay": "QBI293 cell assay of MT stabilization: acetylated α-tubulin ELISA", "assay_type": "cell-based", "in_short": "as §1"}, "[8]": {"assay": "Resazurin cell viability assay, HeLa", "assay_type": "cell-based", "conditions": "human, HeLa cells, three biological replicates, read-out: HeLa CC50 ± SD", "method": "(§2) Cell Culture. QBI293 and HeLa cells were cultured in DMEM supplemented with 10% heat-\n(§3) inactivated FBS and 1% penicillin-streptomycin. Cells were grown in T175 cell culture flasks maintained\n(§4) at 37 ℃ in 5% CO2 and sub-c ultured when at 60-8 0% cell confluence.\n(§5) Resazurin Cell Viability Assay. Cytotoxicity in QBI293 and HeLa cells was measured using the\n(§6) resazurin cell viability assay.1 Test compounds were serially diluted in DMSO and added to 96-well\n(§7) polystyrene assay plates to give final assay concentrations ranging from 100 nM to 4000 nM (1 µL; 1%\n(§8) total DMSO). Fresh medium was added to the assay plate (49 µL/well). QBI293 or HeLa cells were\n(§9) cells/well. Assay plates were incubated at 37 °C and 5% CO2 for 48 h, followed by addition of 20 µL 0.5\n(§10) mM resazurin (Alfa Aesar, Cat. B21187) in PBS to each well. Assay plates were incubated in the dark for\n(§11) (1 picture or pasted object on this page, not shown here)\n(§12) 4 h at 37 °C. Fluorescence was measured at 531 nm and 595 nm excitation and emission wavelengths,\n(§13) respectively, using a 2104 EnVision® multilabel plate reader. The viability of each well was normalized to\n(§14) positive and negative controls in each assay plate. Dose-response curves were generated and CC50 values\n(§15) calculated with GraphPad Prism, version 9.3 (San Diego, CA) using a sigmoidal four parameter logistic\n(§16) curve. The means ± standard deviations from three biological replicates are shown.\n(§17) (1) O'Brien, J.; Wilson, I.; Orton, T.; Pognan, F. Investigation of the Alamar Blue (resazurin) fluorescent\n(§18) dye for the assessment of mammalian cell cytotoxicity. Eur. J. Biochem. 2000, 267 (17), 5421-5426."}, "[9]": {"assay": "Resazurin cell viability assay, QBI293", "assay_type": "cell-based", "conditions": "human, QBI293 cells, three biological replicates, read-out: QBI293 CC50 ± SD", "method": "as §2, §3, §4, §5, §6, §7, §8, §9, §10, §11, §12, §13, §14, §15, §16, §17, §18"}},
  "note": "Where two headings read alike, the source gives them in different places.",
  "data": [
    {"smiles": "C[C@H](Nc1c(-c2c(F)cc(F)cc2F)c(Cl)nc2ncnn12)C(F)(F)F", "note": "[Compound 2]", "values": [
      {"measurement": "total tubulin levels", "setting": "[1]", "result": "reduction in total tubulin levels"},
      {"measurement": "Class (cellular phenotype)", "setting": "[2]", "result": "I"}
    ]},
    {"smiles": "C[C@@H](Nc1c(-c2c(F)cc(C#CCCN(C)C)cc2F)c(Cl)nc2ncnn12)C(C)(C)C", "note": "[Compound 60, (R)-5-Chloro-6-(4-(4-(dimethylamino)but-1-yn-1-yl)-2,6-difluorophenyl)-N-(3,3-dimethylbutan-2-yl)-[1,2,4]triazolo[1,5-a]pyrimidin-7-amine]", "values": [
      {"measurement": "fold induction at 1 µM", "setting": "[3]; 4 h, 1 uM compound, read-out: AlfaTub (1uM)", "result": 0.94},
      {"measurement": "fold induction at 10 µM", "setting": "[3]; 4 h, 10 uM compound, read-out: AlfaTub (10 uM)", "result": 0.98},
      {"measurement": "fold induction at 1 µM", "setting": "[3]; 4 h incubation, 1 μM, read-out: α-Tub 1 μM, fold-change compared to vehicle (DMSO)-treated cells", "result": "0.94 ± 0.01"},
      {"measurement": "fold induction at 10 µM", "setting": "[3]; 4 h incubation, 10 μM, read-out: α-Tub 10 μM, fold-change compared to vehicle (DMSO)-treated cells", "result": "0.98 ± 0.01"},
      {"measurement": "brain GluTub (GluTub-to-total α-Tub ratio) relative to vehicle-treated mice", "setting": "[4]", "result": "significant elevations in brain GluTub"},
      {"measurement": "Vd at 24 h", "setting": "[5]; iv, i.v. 5 mg/kg", "result": 4.8, "unit": "L/kg"},
      {"measurement": "clearance at 24 h", "setting": "[5]; iv, i.v. 5 mg/kg", "result": 8.2, "unit": "mL/min/kg"},
      {"measurement": "half-life", "setting": "[5]; iv, i.v. 5 mg/kg, read-out: half-life (T1/2)", "result": "> 6", "unit": "h"},
      {"measurement": "half-life at 24 h", "setting": "[5]; iv, i.v. 5 mg/kg, read-out: half-life (T1/2) (converted)", "result": 6.8, "unit": "h"},
      {"measurement": "bioavailability", "setting": "[5]; oral, 5 mg/kg i.v. and 20 mg/kg p.o., read-out: oral bioavailability (F)", "result": "> 50", "unit": "%"},
      {"measurement": "bioavailability at 24 h", "setting": "[5]; po, 5 mg/kg i.v. and 20 mg/kg p.o., read-out: oral bioavailability (F)", "result": 56, "unit": "%"},
      {"measurement": "Kp at 1 h", "setting": "[6]", "result": "~0.5"},
      {"measurement": "AcTub (1 uM - normalized)", "setting": "[7]; 1 uM compound, normalized", "result": 1.75},
      {"measurement": "AcTub (10 uM - normalized)", "setting": "[7]; 10 uM compound, normalized", "result": 1.28},
      {"measurement": "fold induction at 1 µM", "setting": "[7]; 4 h, 1 uM compound, read-out: AcTub (1uM)", "result": 9.5},
      {"measurement": "fold induction at 10 µM", "setting": "[7]; 4 h, 10 uM compound, read-out: AcTub (10 uM)", "result": 6.94},
      {"measurement": "AcTub 1 μM, fold-change compared to positive control compound 5 (100 nM) (in parentheses)", "setting": "[7]; 4 h incubation, 1 μM", "result": 1.75, "unit": "fold-change"},
      {"measurement": "fold induction at 1 µM", "setting": "[7]; 4 h incubation, 1 μM, read-out: AcTub 1 μM, fold-change compared to vehicle (DMSO)-treated cells", "result": "9.5 ± 0.34"},
      {"measurement": "AcTub 10 μM, fold-change compared to positive control compound 5 (100 nM) (in parentheses)", "setting": "[7]; 4 h incubation, 10 μM", "result": 1.28, "unit": "fold-change"},
      {"measurement": "fold induction at 10 µM", "setting": "[7]; 4 h incubation, 10 μM, read-out: AcTub 10 μM, fold-change compared to vehicle (DMSO)-treated cells", "result": "6.94 ± 0.22"}
    ]},
    {"smiles": "C[C@@H](Nc1c(-c2c(F)cc(C#N)cc2F)c(Cl)nc2ncnn12)C(C)(C)C", "note": "[Compound 68]", "values": [
      {"measurement": "brain GluTub (GluTub-to-total α-Tub ratio) relative to vehicle-treated mice", "setting": "[4]", "result": "significant elevations in brain GluTub"},
      {"measurement": "Class (cellular phenotype)", "setting": "[2]", "result": "I"},
      {"measurement": "CC50 at 48 h", "setting": "[8]", "result": "41.7 ± 3", "unit": "nM"},
      {"measurement": "CC50 at 48 h", "setting": "[9]", "result": "30.7 ± 5.2", "unit": "nM"}
    ]}
  ]
}
